# Assays:
# [1] = target: memapsin 2 (Homo sapiens, UniProt P56817); assay: Inhibition of memapsin 2 beta-secretase activity toward fluorogenic substrate FS-2; type: biochemical; settings: memapsin 2, pH 4, 37° C., 20 minutes pre-incubation, substrate FS-2; read-out: M2Ki
# In short: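 Memapsin 2 was preincubated with compound 20 min at pH 4, 37 °C, then reacted with fluorogenic substrate FS-2 (MCA-SEVNLDAEFK-DNP), an APP-derived Swedish-variant peptide. Inhibition was followed kinetically by fluorescence.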
# [2] = tested on: Aβ production in Chinese hamster ovary cells that over-express human APP695 with the London and Swedish mutations; assay: Cellular Aβ IC50 determination (Aβ40 sandwich ELISA); type: cell-based; settings: Cricetulus griseus; Aβ40 in CHO cells over-expressing human APP695, 24 h incubation
# Protocol: The potency of compounds against memapsin 2 activity was determined in a cellular assay of Aβ production. […] Chinese hamster ovary cells that over-express human APP695 with the London and Swedish mutations were seeded in multi-well plates at 10% confluency. Compounds are dissolved in DMSO to concentrations near 1 mM, and diluted into culture media to a final concentration near 4 μM (final 0.4% DMSO). Compounds were diluted serially and applied to cells in multi-well plates 48 h after seeding. Incubation was continued in 5% CO2 at 37° C. for 24 h. Aliquots were removed and assayed for Aβ40 content using a sandwich ELISA (BioSource International). Amount of Aβ40 over the range of concentration of compounds, relative to control incubations, were fit to a 4-parameter IC50 model.
# Sequence of memapsin 2 (P56817 46-501): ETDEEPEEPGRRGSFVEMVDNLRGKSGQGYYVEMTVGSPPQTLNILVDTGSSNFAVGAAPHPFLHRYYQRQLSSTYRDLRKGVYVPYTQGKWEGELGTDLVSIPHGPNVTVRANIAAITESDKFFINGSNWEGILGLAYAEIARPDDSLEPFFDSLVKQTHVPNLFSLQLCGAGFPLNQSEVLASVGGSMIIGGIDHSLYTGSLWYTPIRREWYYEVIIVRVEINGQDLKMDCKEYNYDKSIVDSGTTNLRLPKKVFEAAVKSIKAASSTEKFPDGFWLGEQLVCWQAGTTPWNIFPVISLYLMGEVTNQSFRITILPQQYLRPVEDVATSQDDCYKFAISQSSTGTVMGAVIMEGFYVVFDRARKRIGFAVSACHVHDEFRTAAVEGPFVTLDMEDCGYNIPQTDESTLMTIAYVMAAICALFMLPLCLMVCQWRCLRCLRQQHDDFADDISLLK
SMILES,Ki [1] [nM],IC50 [2] [nM]
"Cc1csc([C@H]2CCCN2C(=O)c2cc(C(=O)N[C@@H](Cc3ccccc3)[C@H](O)CNCc3cccc(C(F)(F)F)c3)cc(-c3cnccn3)c2)n1 [Compound 49, N-((2S,3R)-3-hydroxy-1-phenyl-4-(3-(trifluoromethyl)benzylamino)butan-2-yl)-3-((R)-2-(4-methylthiazol-2-yl)pyrrolidine-1-carbonyl)-5-(pyrazin-2-yl)benzamide]",< 100,< 300
"Cc1csc([C@H]2CCCN2C(=O)c2cc(CF)cc(C(=O)N[C@@H](Cc3ccccc3)[C@H](O)CNCc3cncc(C(C)(C)F)c3)c2)n1 [Compound 50, 3-(fluoromethyl)-N-((2S,3R)-4-((5-(2-fluoropropan-2-yl)pyridin-3-yl)methylamino)-3-hydroxy-1-phenylbutan-2-yl)-5-((R)-2-(4-methylthiazol-2-yl)pyrrolidine-1-carbonyl)benzamide]",< 100,< 300
"Cc1csc([C@H]2CCCN2C(=O)c2cc(CF)cc(C(=O)N[C@@H](Cc3ccccc3)[C@H](O)CNCc3cncc(C(F)(F)F)c3)c2)n1 [Compound 51, 3-(fluoromethyl)-N-((2S,3R)-3-hydroxy-1-phenyl-4-((5-(trifluoromethyl)pyridin-3-yl)methylamino)butan-2-yl)-5-((R)-2-(4-methylthiazol-2-yl)pyrrolidine-1-carbonyl)benzamide]",< 100,< 300
"Cc1cc(C(=O)N[C@@H](Cc2ccccc2)[C@H](O)CNCc2cncc(C(C)C)c2)cc(C(=O)N2CCC[C@@H]2c2nc(C)cs2)c1 [Compound 52, N-((2S,3R)-3-hydroxy-4-((5-isopropylpyridin-3-yl)methylamino)-1-phenylbutan-2-yl)-3-methyl-5-((R)-2-(4-methylthiazol-2-yl)pyrrolidine-1-carbonyl)benzamide]",< 100,< 300
"Cc1cc(C(=O)N[C@@H](Cc2ccccc2)[C@H](O)CNCc2cccc(C(F)(F)F)c2)cc(C(=O)N2CCC[C@@H]2c2nc(C)co2)c1 [Compound 55, N-((2S,3R)-3-hydroxy-1-phenyl-4-(3-(trifluoromethyl)benzylamino)butan-2-yl)-3-methyl-5-((R)-2-(4-methyloxazol-2-yl)pyrrolidine-1-carbonyl)benzamide]",< 100,< 300
"Cc1cc(C(=O)N[C@@H](Cc2ccccc2)[C@H](O)CNCc2cncc(C(C)C)c2)cc(C(=O)N2CCC[C@@H]2c2nc(C)co2)c1 [Compound 56, N-((2S,3R)-3-hydroxy-4-((5-isopropylpyridin-3-yl)methylamino)-1-phenylbutan-2-yl)-3-methyl-5-((R)-2-(4-methyloxazol-2-yl)pyrrolidine-1-carbonyl)benzamide]",< 100,< 300
"Cc1csc([C@H]2CCCN2C(=O)c2cc(C(=O)N[C@@H](Cc3ccccc3)[C@H](O)CNCc3cccc(C(F)(F)F)c3)cc(C(F)F)c2)n1 [Compound 57, 3-(difluoromethyl)-N-((2S,3R)-3-hydroxy-1-phenyl-4-(3-(trifluoromethyl)benzylamino)butan-2-yl)-5-((R)-2-(4-methylthiazol-2-yl)pyrrolidine-1-carbonyl)benzamide]",< 100,< 300
"Cc1cc(C(=O)N[C@@H](Cc2ccccc2)[C@H](O)CNCc2cncc(C(C)(C)F)c2)cc(C(=O)N2CCC[C@@H]2c2nc(C)co2)c1 [Compound 59, N-((2S,3R)-4-((5-(2-fluoropropan-2-yl)pyridin-3-yl)methylamino)-3-hydroxy-1-phenylbutan-2-yl)-3-methyl-5-((R)-2-(4-methyloxazol-2-yl)pyrrolidine-1-carbonyl)benzamide]",< 100,< 300
"Cc1csc([C@H]2CCCN2C(=O)c2cncc(C(=O)N[C@@H](Cc3ccccc3)[C@H](O)CNCc3cc(Cl)cc(Cl)c3)c2)n1 [Compound 60, N-((2S,3R)-4-(3,5-dichlorobenzylamino)-3-hydroxy-1-phenylbutan-2-yl)-5-((R)-2-(4-methylthiazol-2-yl)pyrrolidine-1-carbonyl)nicotinamide]",< 100,< 300
"Cc1csc([C@H]2CCCN2C(=O)c2cc(C(=O)N[C@@H](Cc3ccccc3)[C@H](O)CNCc3cccc(C(F)(F)F)c3)ccn2)n1 [Compound 64, N-((2S,3R)-3-hydroxy-1-phenyl-4-(3-(trifluoromethyl)benzylamino)butan-2-yl)-2-((R)-2-(4-methylthiazol-2-yl)pyrrolidine-1-carbonyl)isonicotinamide]",< 100,< 300
"Cc1cc(CNC[C@@H](O)[C@H](Cc2ccccc2)NC(=O)c2cccc(C(=O)N3CCC[C@@H]3c3nc(C)cs3)c2)on1 [Compound 65, N-((2S,3R)-3-hydroxy-4-((3-methylisoxazol-5-yl)methylamino)-1-phenylbutan-2-yl)-3-((R)-2-(4-methylthiazol-2-yl)pyrrolidine-1-carbonyl)benzamide]",> 201,301 to 500
"Cc1csc([C@H]2CCCN2C(=O)c2cccc(C(=O)N[C@@H](Cc3ccccc3)[C@H](O)CNCc3cc(C)on3)c2)n1 [Compound 66, N-((2S,3R)-3-hydroxy-4-((5-methylisoxazol-3-yl)methylamino)-1-phenylbutan-2-yl)-3-((R)-2-(4-methylthiazol-2-yl)pyrrolidine-1-carbonyl)benzamide]",< 100,< 300
"Cc1cc(C(=O)N2CCC[C@@H]2c2nc(C)cs2)cc(C(=O)N[C@@H](Cc2ccccc2)[C@H](O)CNCc2cccc(C(F)(F)F)c2)n1 [Compound 68, N-((2S,3R)-3-hydroxy-1-phenyl-4-(3-(trifluoromethyl)benzylamino)butan-2-yl)-6-methyl-4-((R)-2-(4-methylthiazol-2-yl)pyrrolidine-1-carbonyl)picolinamide]",< 100,< 300
"Cc1csc([C@H]2CCCN2C(=O)c2cccc(C(=O)N[C@@H](Cc3ccccc3)[C@H](O)CNCc3cccc(N(C)C)c3)c2)n1 [Compound 69, N-((2S,3R)-4-(3-(dimethylamino)benzylamino)-3-hydroxy-1-phenylbutan-2-yl)-3-((R)-2-(4-methylthiazol-2-yl)pyrrolidine-1-carbonyl)benzamide]",< 100,< 300
"Cc1coc([C@H]2CCCN2C(=O)c2cccc(C(=O)N[C@@H](Cc3ccccc3)[C@H](O)CNCc3cccc(C(C)(C)C)c3)c2)n1 [Compound 70, N-((2S,3R)-4-(3-tert-butylbenzylamino)-3-hydroxy-1-phenylbutan-2-yl)-3-((R)-2-(4-methyloxazol-2-yl)pyrrolidine-1-carbonyl)benzamide]",< 100,< 300
"Cc1coc([C@H]2CCCN2C(=O)c2cncc(C(=O)N[C@@H](Cc3ccccc3)[C@H](O)CNCc3cncc(C(C)C)c3)c2)n1 [Compound 71, N-((2S,3R)-3-hydroxy-4-((5-isopropylpyridin-3-yl)methylamino)-1-phenylbutan-2-yl)-5-((R)-2-(4-methyloxazol-2-yl)pyrrolidine-1-carbonyl)nicotinamide]",< 100,< 300
"Cc1coc([C@H]2CCCN2C(=O)c2cncc(C(=O)N[C@@H](Cc3ccccc3)[C@H](O)CNCc3cncc(C(C)(C)F)c3)c2)n1 [Compound 73, N-((2S,3R)-4-((5-(2-fluoropropan-2-yl)pyridin-3-yl)methylamino)-3-hydroxy-1-phenylbutan-2-yl)-5-((R)-2-(4-methyloxazol-2-yl)pyrrolidine-1-carbonyl)nicotinamide]",< 100,< 300
"Cc1csc([C@H]2CCCN2C(=O)c2cc(C(=O)N[C@@H](Cc3ccccc3)[C@H](O)CNCc3cncc(C(C)C)c3)cc(-n3cccc3)c2)n1 [Compound 74, N-((2S,3R)-3-hydroxy-4-((5-isopropylpyridin-3-yl)methylamino)-1-phenylbutan-2-yl)-3-((R)-2-(4-methylthiazol-2-yl)pyrrolidine-1-carbonyl)-5-(1H-pyrrol-1-yl)benzamide]",< 100,< 300
"Cc1csc([C@H]2CCCN2C(=O)c2cc(C(=O)N[C@@H](Cc3ccccc3)[C@H](O)CNCc3cccc(C(F)(F)F)c3)cc(-c3ccco3)n2)n1 [Compound 75, 2-(furan-2-yl)-N-((2S,3R)-3-hydroxy-1-phenyl-4-(3-(trifluoromethyl)benzylamino)butan-2-yl)-6-((R)-2-(4-methylthiazol-2-yl)pyrrolidine-1-carbonyl)isonicotinamide]",< 100,< 300
"Cc1coc([C@H]2CCCN2C(=O)c2cncc(C(=O)N[C@@H](Cc3ccccc3)[C@H](O)CNCc3cccc(C(C)(C)C)c3)c2)n1 [Compound 76, N-((2S,3R)-4-(3-tert-butylbenzylamino)-3-hydroxy-1-phenylbutan-2-yl)-5-((R)-2-(4-methyloxazol-2-yl)pyrrolidine-1-carbonyl)nicotinamide]",< 100,< 300
"Cc1coc([C@H]2CCCN2C(=O)c2cc(CF)cc(C(=O)N[C@@H](Cc3ccccc3)[C@H](O)CNCc3cncc(C(C)C)c3)c2)n1 [Compound 77, 3-(fluoromethyl)-N-((2S,3R)-3-hydroxy-4-((5-isopropylpyridin-3-yl)methylamino)-1-phenylbutan-2-yl)-5-((R)-2-(4-methyloxazol-2-yl)pyrrolidine-1-carbonyl)benzamide]",< 100,< 300

# Source: patent US8299267B2, “(3-hydroxy-4-amino-butan-2-yl) -3- (2-thiazol-2-yl-pyrrolidine-1-carbonyl) benzamide derivatives and related compounds as beta-secretase inhibitors for treating” (CoMentis, Inc., priority 2007, dated 2012)
